Test results published in patent US20060035925A1, “SUBSTITUTED 4H-CHROMENES AND ANALOGS AS ACTIVATORS OF CASPASES AND INDUCERS OF APOPTOSIS AND THE USE THEREOF” (Cytovia, Inc., priority 1999, published 2006).
Read-outs that look alike come from different tables or passages of the source.

Experiments:
[1] = tested on: Human breast cancer cell line T-47D; test: Caspase cascade activation assay (N-(Ac-DEVD)-N'-ethoxycarbonyl-R110 fluorogenic substrate) in T-47D cells; format: cell-based; details: for Caspase activity (Ratio) T-47D: 24 h incubation with compound, ratio of net RFU (T=3 h) of test compound to control; for EC50: 24 h incubation, sigmoidal dose-response, read-out: Caspase potency EC50 (nM) T-47D
Procedure: (§1) Human breast cancer cell lines T-47D and ZR-75-1 were grown according to media component mixtures designated by American Type Culture Collection +10% FCS (Invitrogen Corporation), in a 5% CO2-95% humidity incubator at 37° C. T-47D and ZR-75-1 cells were maintained at a cell density between 30 and 80% confluency at a cell density of 0.1 to 0.6×10^6 cells/ml. Cells were harvested at 600×g and resuspended at 0.65×10^6 cells/mL into appropriate media +10% FCS. An aliquot of 45 μl of cells was added to a well of a 96-well microtiter plate containing 5 μl of a 10% DMSO in RPMI-1640 media solution containing 0.16 to 10 μM of 2-amino-3-cyano-4-(3-bromo-4,5-dimethoxyphenyl)-4H-indolo[7,6-b]pyran (Example 42) or other test compound (0.016 to 1 μM final). An aliquot of 45 μl of cells was added to a well of a 96-well microtiter plate containing 5 μl of a 10% DMSO in RPMI-1640 media solution without test compound as the control sample. The samples were mixed by agitation and then incubated at 37° C. for 24 h in a 5% CO2-95% humidity incubator. After incubation, the samples were removed from the incubator and 50 μl of a solution containing 20 μM of N-(Ac-DEVD)-N′-ethoxycarbonyl-R110 (SEQ ID NO:1) fluorogenic substrate (Cytovia, Inc.; WO99/18856), 20% sucrose (Sigma), 20 mM DTT (Sigma), 200 mM NaCl (Sigma), 40 mM Na PIPES buffer pH 7.2 (Sigma), and 500 μg/ml lysolecithin (Calbiochem) was added. The samples were mixed by agitation and incubated at room temperature. Using a fluorescent plate reader (Model 1420 Wallac Instruments), an initial reading (T=0) was made approximately 1-2 min after addition of the substrate solution, employing excitation at 485 nm and emission at 530 nm, to determine the background fluorescence of the control sample. After the 3 h incubation, the samples were read for fluorescence as above (T=3 h).
(§2) The Relative Fluorescence Unit values (RFU) were used to calculate the sample readings as follows: RFU(T=3h)−Control RFU(T=0)=Net RFU(T=3h)
(§3) The activity of caspase cascade activation was determined by the ratio of the net RFU value for 2-amino-3-cyano-4-(3-bromo-4,5-dimethoxyphenyl)-4H-indolo[7,6-b]pyran or other test compound to that of control samples. The EC50 (nM) was determined by a sigmoidal dose-response calculation (Prism 2.0, GraphPad Software Inc.).

[2] = tested on: Human breast cancer cell line ZR-75-1; test: Caspase cascade activation assay (N-(Ac-DEVD)-N'-ethoxycarbonyl-R110 fluorogenic substrate) in ZR-75-1 cells; format: cell-based; details: ZR-75-1 cells; for EC50: 24 h incubation, sigmoidal dose-response, read-out: Caspase potency EC50 (nM) ZR-75-1; for Caspase activity (Ratio) ZR-75-1: 24 h incubation with compound, ratio of net RFU (T=3 h) of test compound to control
Procedure: as §1, §2, §3

SMILES | EC50 ([1]; Homo sapiens, T47D, 24 h) | EC50 ([2]; Homo sapiens, ZR-75-1, 24 h) | EC50 [1] | EC50 [2] | Caspase activity (Ratio) T-47D [1] | Caspase activity (Ratio) ZR-75-1 [2]
COc1ccc2c(c1)OC(N)=C(C#N)C2c1cccc(C#N)c1 (stereo not shown) [Example 5, 2-Amino-3-cyano-7-methoxy-4-(3-cyanophenyl)-4H-chromene] | 37 nM | 46 nM | – | – | 6.9 | 7.1
COc1ccc2c(c1)OC(N)=C(C#N)C2c1cccc(Br)c1 (stereo not shown) [Example 6, 2-Amino-3-cyano-7-methoxy-4-(3-bromophenyl)-4H-chromene] | 54 nM | 30 nM | – | – | 6.8 | 12.8
CCNc1ccc2c(c1)OC(N)=C(C#N)C2c1cccc(Cl)c1 (stereo not shown) [Example 8, 2-Amino-3-cyano-7-ethylamino-4-(3-chlorophenyl)-4H-chromene] | 126 nM | 62 nM | – | – | 8.5 | 10.1
CCNc1ccc2c(c1)OC(N)=C(C#N)C2c1cccc([N+](=O)[O-])c1 (stereo not shown) [Example 9, 2-Amino-3-cyano-7-ethylamino-4-(3-nitrophenyl)-4H-chromene] | 116 nM | 50 nM | – | – | 7.6 | 12.8
COc1ccc2c(c1)OC(N)=C(C#N)C2c1cccc(Cl)c1 (stereo not shown) [Example 10, 2-Amino-3-cyano-7-methoxy-4-(3-chlorophenyl)-4H-chromene] | 48 nM | 36 nM | – | – | 6.1 | 9.0
COc1ccc2c(c1)OC(N)=C(C#N)C2c1cccc([N+](=O)[O-])c1 (stereo not shown) [Example 11, 2-Amino-3-cyano-7-methoxy-4-(3-nitrophenyl)-4H-chromene] | 45 nM | 28 nM | – | – | 4.5 | 6.6
COc1cc(OC)cc(C2C(C#N)=C(N)Oc3cc(OC)ccc32)c1 (stereo not shown) [Example 12, 2-Amino-3-cyano-7-methoxy-4-(3,5-dimethoxyphenyl)-4H-chromene] | 14 nM | 9 nM | – | – | 6.1 | 6.7
CCNc1ccc2c(c1)OC(N)=C(C#N)C2c1cc(OC)c(OC)c(OC)c1 (stereo not shown) [Example 13, 2-Amino-3-cyano-7-ethylamino-4-(3,4,5-trimethoxyphenyl)-4H-chromene] | 25 nM | 14 nM | – | – | 4.4 | 7.0
CCNc1ccc2c(c1)OC(N)=C(C#N)C2c1cccc(C#N)c1 (stereo not shown) [Example 16, 2-Amino-3-cyano-7-ethylamino-4-(3-cyanophenyl)-4H-chromene] | 11 nM | 6 nM | – | – | 7 | 6.7
COc1ccc2c(c1)OC(N)=C(C#N)C2c1cccnc1 (stereo not shown) [Example 17, 2-Amino-3-cyano-7-methoxy-4-(3-pyridyl)-4H-chromene] | 254 nM | 147 nM | – | – | 5.9 | 8.2
N#CC1=C(N)OC2C3=CC=NC3=CC=C2C1c1cccnc1 (stereo not shown) [Example 18, 2-Amino-3-cyano-4-(3-pyridyl)-4H-indolo[4,5-b]pyran] | 56 nM | 38 nM | – | – | 9.0 | 8.8
N#CC1=C(N)Oc2cc(N)ccc2C1c1cccc(Br)c1 (stereo not shown) [Example 19, 2,7-Diamino-3-cyano-4-(3-bromophenyl)-4H-chromene] | 274 nM | 206 nM | – | – | 5.9 | 9.2
COc1ccc2c(c1)OC(N)=C(C#N)C2C1CC=CCC1 (stereo not shown) [Example 28, 2-Amino-3-cyano-7-methoxy-4-(1,2,3,6-tetrahydrophenyl)-4H-chromene] | 158 nM | 154 nM | – | – | 3.4 | 5.2

More lines, main results first:

EC50 ([1]; Homo sapiens, T47D, 24 h) | EC50 ([2]; Homo sapiens, ZR-75-1, 24 h) | EC50 [1] | EC50 [2] | SMILES | Caspase activity (Ratio) T-47D [1] | Caspase activity (Ratio) ZR-75-1 [2]
108 nM | 53 nM | – | – | CCNc1ccc2c(c1)OC(N)=C(C#N)C2c1cccc(Br)c1 (stereo not shown) [Example 7, 2-Amino-3-cyano-7-ethylamino-4-(3-bromophenyl)-4H-chromene] | 5.4 | 10.7
10 nM | 10 nM | – | – | CCNc1ccc2c(c1)OC(N)=C(C#N)C2c1cc(OC)cc(OC)c1 (stereo not shown) [Example 14, 2-Amino-3-cyano-7-ethylamino-4-(3,5-dimethoxyphenyl)-4H-chromene] | 7 | 7.7
7 nM | 4 nM | – | – | CCNc1ccc2c(c1)OC(N)=C(C#N)C2c1cccc(OC)c1 (stereo not shown) [Example 15, 2-Amino-3-cyano-7-ethylamino-4-(3-methoxyphenyl)-4H-chromene] | 5.9 | 6.3
120 nM | 58 nM | – | – | N#CC1=C(N)Oc2cc(N)ccc2C1c1cccc(C#N)c1 (stereo not shown) [Example 20, 2,7-Diamino-3-cyano-4-(3-cyanophenyl)-4H-chromene] | 4.0 | 5.2
697 nM | 562 nM | – | – | COc1cccc(C2C(C#N)=C(N)Oc3cc(N)ccc32)c1 (stereo not shown) [Example 21, 2,7-Diamino-3-cyano-4-(3-methoxyphenyl)-4H-chromene] | 6.0 | 9.2
4800 nM | 2480 nM | – | – | N#CC1=C(N)Oc2cc(N)ccc2C1c1cccc(Cl)c1 (stereo not shown) [Example 22, 2,7-Diamino-3-cyano-4-(3-chlorophenyl)-4H-chromene] | 5.8 | 8.0
146 nM | 102 nM | – | – | Cc1cccc(C2C(C#N)=C(N)Oc3cc(N)ccc32)c1 (stereo not shown) [Example 23, 2,7-Diamino-3-cyano-4-(3-methylphenyl)-4H-chromene] | 4.6 | 5.2
> 10000 nM | > 10000 nM | – | – | N#CC1=C(N)Oc2cc(N)ccc2C1c1cccnc1 (stereo not shown) [Example 24, 2,7-Diamino-3-cyano-4-(3-pyridyl)-4H-chromene] | <2 | <2
463 nM | 325 nM | – | – | N#CC1=C(N)Oc2cc(N)ccc2C1c1cccc([N+](=O)[O-])c1 (stereo not shown) [Example 25, 2,7-Diamino-3-cyano-4-(3-nitrophenyl)-4H-chromene] | 6.1 | 9.7
140 nM | 82 nM | – | – | COc1ccc2c(c1)OC(N)=C(C#N)C2c1ccccc1 (stereo not shown) [Example 26, 2-Amino-3-cyano-7-methoxy-4-phenyl-4H-chromene] | 3.5 | 6.4
– | – | > 10000 nM | > 10000 nM | N#CC1=C(N)Oc2ccccc2C1c1ccccc1 (stereo not shown) [Example 29, 2-Amino-3-cyano-4-phenyl-4-H-chromene] | <2 | <2
24 nM | 14 nM | – | – | COc1ccc2c(c1)OC(N)=C(C#N)C2c1cncc(C)c1 (stereo not shown) [Example 30, 2-Amino-3-cyano-7-methoxy-4-(5-methyl-3-pyridyl)-4H-chromene] | 7.5 | 13.2
